Here are results for one compound from patent publication US10092620B2, “Uses of cyclic peptides for treating and preventing atherosclerosis” (THE SCRIPPS RESEARCH INSTITUTE, priority 2013, dated 2018).

The test system of data set [1] is plasma HDL. Description: in vivo plasma HDL remodeling after intraperitoneal injection (Western blotting for mouse apoA-I). The conditions noted are these: male BALB/c mice (n=3), i.p. 20 mg/kg; FIG. 3a; 20 mg/kg. The method, then: To ascertain if the cyclic D,L-α-peptides function in vivo as modulators of HDL, we administered 1 to mice (BALB/c, n=3) via intraperitoneal injection (i.p.) at a dose of 20 mg/kg. After various times, blood was drawn and the plasma was analyzed by Western blotting to determine the levels of the HDL subpopulations.
In vivo plasma remodeling: Cyclic peptide c[wLwReQeR], 1, was dissolved in 10% sucrose, and sterile filtered through a 0.22-μm syringe filter before injection. Mice were fasted beginning 12 h before dosing, and continued the fast until after the 8-h time point blood draw was completed. Groups of three mice received a 20 mg/kg dose of the cyclic peptide via intraperitoneal injection (0.3 mL). Blood was drawn (30-60 μL) from the retro-orbital sinus into a heparinized capillary tube before dosing (0 min) and at different intervals from 30 min to 8 h after dosing. Plasma was isolated immediately from the whole blood by centrifugation at 5000 rpm for 10 min at 4° C., after which 10 μL of plasma were mixed with 90 μL of 50% sucrose, vortexed for 30 s, and stored at 4° C. until all time points had been collected (samples were stored from 0-8 h). Samples were then mixed with 20 μL of 6× native loading buffer (125 mM tris, pH 6.8, 0.02% bromophenol, 20% glycerol). 6 μL of these samples were loaded onto a 4-20% polyacrylamide gel. Gels were run at constant 80 V at 4° C. for 14 h using a Laemli buffer system (25 mM tris, 192 mM glycine, pH 8.3). Gels were then blotted onto nitrocellulose membranes (0.45 μm, Bio-Rad) at constant 30 V at 4° C. for 2 h using the Laemli buffer (no methanol). The membrane was blocked with 5% non-fat dry milk (NFDM) in TBST (20 mM tris, 150 mM NaCl, pH 7.6, 0.1% Tween-20) for 1 h at 23° C., and then washed once for 10 min with TBST. […]
In vivo plasma HDL remodeling activities of some of the peptides were also analyzed. […] Results shown in the figure were determined by Western blotting for mouse apoA-I.

Data set [2] relates to LDLr-null mice. In words: evaluation of atherosclerosis: whole aorta lesion area and aortic sinus lesion volume. Conditions: 10 weeks. In kind it is in vivo, mouse. From the text:
In vivo efficacy study: LDL receptor-null (LDLr^−/−) mice on a C57BL/6J background were initially purchased from Jackson Laboratories (Bar Harbor, Me.) and were bred in house. The mice were weaned at 4 weeks of age and were fed ad libitum a standard chow diet (Harlan Teklad 7019) until they were 10-weeks old, when they were switched to a high-fat Western diet (WD) containing 15.8% (wt/wt) fat, 1.25% (wt/wt) cholesterol, and no cholate (Harlan Teklad 94059). At the time that the WD was started, the test cyclic peptide was added to the drinking water at a high dose of 180 μM (200 μg/mL) or a low dose of 18 μM (20 μg/mL) and the mice (female, n=8 per dosing group) were continued on WD for 10 weeks. The lyophilized peptide was easily dissolved in PBS (pH 7.4) containing 1% sucrose, resulting in a clear solution. The drinking water solution was replaced with fresh solution every day. A control group of eight mice (female, n=8) were fed WD with vehicle (PBS with 1% sucrose) drinking water. The mice consumed approximately 2.5 mL of water per day per mouse, and there was no significant difference in water or food consumption between groups.
Evaluation of atherosclerosis: Atherosclerotic lesion severity was assessed in the aortae as previously described in Mullick et al., J. Clin. Invest. 115, 3149-3156, 2005. Briefly, at euthanasia, animals were perfused with PBS, followed by 4% formaldehyde (10% UltraPure EM Grade from Polysciences diluted in PBS, pH 7.2). For en face analysis, the entire mouse aorta was dissected from the proximal ascending aorta to the bifurcation of the iliac artery by using a dissecting microscope. Adventitial fat was removed, and the aorta was opened longitudinally, pinned flat onto black dissecting wax, stained with Sudan IV, and photographed at a fixed magnification. The photographs were digitized, and total aortic areas and lesion areas were calculated by using Adobe Photoshop version CS4, Chromatica V, and NIH Scion Image software (http://rsb.info.nih.gov/nih-image/Default.html). The results were reported as a percentage of the total aortic area that contained lesions.
As a second assessment of atherosclerosis, lesions of the aortic root (heart sinus) were analyzed. Utilizing stereological principles, lesion volume was estimated across a fixed distance of the aortic sinus. […] Lesion areas found only within the valve cusp were measured. […] Lesion volume was calculated from an integration of the measured cross-sectional areas. […]
Other than their in vivo cholesterol reducing activities, several peptides were also examined for ability to inhibit development of atherosclerotic legions in vivo. […] All charts in the figure are shown as a scatter plot along with mean±SD. p values were determined by the one-way ANOVA test with a post hoc Tukey-Kramer test.

Data set [3] is described as follows: body, liver and spleen weights, food and water intake. Conditions: oral ~25 mg/kg/day, 10 weeks, LDLr-null mice. In kind it is in vivo, mouse. The method, then:
Body weight was measured weekly. Mice were weighed prior to fasting. Liver and spleen weights were determined at the end of treatment.

[4] abbreviates: oral ~25 mg/kg/day, LDLr-null mice, high-fat diet, vs control.

Structures are written as SMILES. Entries after “also recorded” stand apart in the source; their conditions may differ. Non-standard residues stand in square brackets, D forms with d. Residues, ends and D or L forms follow the SMILES beside them.

`CC(C)C[C@@H]1NC(=O)[C@@H](Cc2c[nH]c3ccccc23)NC(=O)[C@H](CCCNC(=N)N)NC(=O)[C@@H](CCC(=O)O)NC(=O)[C@H](CCC(N)=O)NC(=O)[C@@H](CCC(=O)O)NC(=O)[C@H](CCCNC(=N)N)NC(=O)[C@@H](Cc2c[nH]c3ccccc23)NC1=O` [SEQ ID NO:1, c[wLwReQeR]] (cyclo([dW]L[dW]R[dE]Q[dE]R)): the “level of lipid-poor HDL in plasma” value in data set [1] is given as “marked increase in the amount of lipid-poor HDL for up to 8 h; also recorded: increased the level of lipid-poor HDL”. Also, the “atherosclerotic lesions vs control (in words)” value in data set [2] (10-fold lower dose in drinking water) was “no significant differences”. For the same compound, in data set [2] (setting [4]), the “reduction in aortic sinus lesion volume” value is 50% and the “reduction in whole aorta lesion area” value came out at 26%. In data set [3], the “body weight, difference between groups” value is “No differences”; the “food or water intake, difference between groups” value was “No differences”; the “liver weight, difference between groups” value is on record as “No differences”; the “spleen weight, difference between groups” value is recorded as “No differences”.
